How the values were obtained:
[1] = tested on: PDGF-β-induced NHDF proliferation; assay: PDGF-β-induced NHDF proliferation assay; type: cell-based, human; conditions: PDGF-β 10 ng/ml; FIGS. 8-12
Description: The activities of the compounds of the present invention were tested using a proliferation assay, such as the one described by N. Ali et al., J Pharmacol Sci, 2005, 98, 130-141. A defined number of cells is seeded in each well of a culture plate. In order to stimulate cell proliferation, a growth factor is added in some wells, while others remain unstimulated (basal proliferation conditions). To monitor the effects of substances of interest (oligosaccharides compounds according to the present invention) on basal and growth factor-induced cell proliferation, substances of interest are added at different concentrations (i.e. 0.1, 0.3, 1, 3, 10 or 30 μM) in presence or absence of the growth factor, respectively. After an incubation period of 24 hours, the total number of cells is estimated in all samples (generally through an indirect method, such as incorporation of radioactivity into the newly synthesised DNA or colorimetric assays based on cellular enzyme activities or metabolite production). The total number of cells for the control sample in which no substance of interest nor growth factor have been added is set to 1. The total number of cells in all the other samples is compared to this value in order to obtain the relative proliferation index.
Typically, cells are seeded in 48 or 96-well plates. After 2 h (i.e. the time required for cells to adhere to the support) the normal culture media is replaced by a minimal essential culture media in which cells are grown for 24 h (starvation period). This step is used to reduce cell growth (cell metabolism is slowed down in order to better visualise the growth factor stimulation effect) before adding an angiogenic protein, such as a growth factor i.e. FGF-2 or PDGF-β. No growth factor is added in basal proliferation conditions (independently of the presence or absence of the oligosaccharide of the present invention). To evaluate the inhibition of the oligosaccharide compounds according to the present invention on cell proliferation, the angiogenic protein (growth factor) is added at a fixed concentration (from 5 ng/ml to 10 ng/ml) with increasing amounts of oligosaccharide compounds (0.1, 0.3, 1, 3, 10 or 30 μM), which allows the IC50 value to be estimated (i.e. the oligosaccharide concentration at which the stimulatory effect of the growth factor is inhibited by 50%).
Following addition of the angiogenic protein (growth factor) over a 24 h stimulation period, a commercial reagent containing a substrate for a cellular enzyme is added and incubated for couple of hours. The degradation of the substrate by the enzyme leads to the production of a coloured product which is titrated by absorbance measurement. […]

[2] = tested on: control and VEGF-A-stimulated angiogenesis (endothelial tubules, HUVEC/NHDF co-culture); assay: In vitro angiogenesis assay (endothelial tubule formation, AngioKit); type: cell-based, human; conditions: 30 μM compound; anti-CD31 ELISA and AngioSys image analysis; FIGS. 13-15
Source text: These experiments are also known as endothelial tubule formation assays and they are used to evaluate the compound effects on in vitro angiogenesis (the neo-formation of blood vessels from pre-existing ones). This process is critical in tumour development as bloodstream brings all the necessary nutrients and oxygen to cancer cells.
The assay uses a commercially available product (AngioKit) specially designed for screening experiments. The product consists of a 24 or 96-well culture plate containing endothelial and fibroblast cells. A similar assay has been developed “in-house” using 48-well culture plates.
Endothelial cells will, on a ten-day period, develop into a branched network of endothelial tubules or “primitive” blood vessels. This process requires a co-culture with fibroblasts, these latter cells secreting essential growth factors for endothelial cells. At the end of the incubation period (about ten days), angiogenesis is monitored both by ELISA and image analysis software quantifying different blood vessel parameters (number and average length of tubules, field area, number of junctions for example). All reagents and material (except the oligosaccharide compounds, the VEGF-A and the 48-well plate AngioKits) are bought from TCS CellWorks (http://www.tcscellworks.co.uk) which provides: • 24 and 96-well plate AngioKits (including culture medium) • Anti-CD31 (a cell marker specifically expressed on endothelial cells) reagents for ELISA and tubule staining procedures. • AngioSys image analysis software
For home-made 48-well plate AngioKits, NHDF and HUVEC cells were independently purchased while TCS CellWorks culture medium and protocol were used.
The cell medium is replaced with fresh one (day 1) and cells are incubated at 37° C. with the compounds of interest (oligosaccharides and/or angiogenic proteins, such as growth factors). During the course of the experiment, the culture medium (including oligosaccharides and/or angiogenic proteins) is replaced at days 4 and 7.
At day 10, the assay is terminated by the labelling of endothelial cells by an ELISA procedure (indirect colorimetric titration of the endothelial cell number through dosage of the endothelial-specific CD31 marker) and the staining of endothelial tubules. Photographs of stained tubules are taken and analysed with the AngioSys image analysis software.
In the following assay the effects of compounds 239, 240, 246, 247, 248, 249, 252, 254, 255 and 257 on in vitro angiogenesis were measured (all compounds were added at the 30 μM concentration). […] For the data presented in FIG. 13, AngioSys image analyses are shown on FIG. 14. Photographs of endothelial tubules are shown on the side of the anti-CD31 ELISA (see FIGS. 13 and 15).

Row | Compound | inhibition of PDGF-β-induced NHDF proliferation [1] | inhibition of control and/or VEGF-A-stimulated angiogenesis [2]
1 | C#CCCCOC1OC(COS(=O)(=O)[O-])C(OC2OC(C(=O)[O-])C(OC3OC(COS(=O)(=O)[O-])C(OC4OC(C(=O)[O-])C(OC5OC(COS(=O)(=O)[O-])C(OC6OC(C(=O)[O-])C(OCc7ccccc7)C(OCc7ccccc7)C6OS(=O)(=O)[O-])C(OCc6ccccc6)C5NS(=O)(=O)[O-])C(OCc5ccccc5)C4OS(=O)(=O)[O-])C(OCc4ccccc4)C3NS(=O)(=O)[O-])C(OCc3ccccc3)C2OS(=O)(=O)[O-])C(OCc2ccccc2)C1NS(=O)(=O)[O-].[Na+].[Na+].[Na+].[Na+].[Na+].[Na+].[Na+].[Na+].[Na+].[Na+].[Na+].[Na+] (stereo not shown) [Compound 239] | inhibit PDGF-β proliferation (starting in the micromolar range) | inhibition of control and/or VEGF-A-stimulated angiogenesis
2 | C#CCCCOC1OC(COS(=O)(=O)[O-])C(OC2OC(C(=O)[O-])C(OC3OC(COS(=O)(=O)[O-])C(OC4OC(C(=O)[O-])C(OC5OC(COS(=O)(=O)[O-])C(OC6OC(C(=O)[O-])C(OC7OC(COS(=O)(=O)[O-])C(OC8OC(C(=O)[O-])C(OCc9ccccc9)C(OCc9ccccc9)C8OS(=O)(=O)[O-])C(OCc8ccccc8)C7NS(=O)(=O)[O-])C(OCc7ccccc7)C6OS(=O)(=O)[O-])C(OCc6ccccc6)C5NS(=O)(=O)[O-])C(OCc5ccccc5)C4OS(=O)(=O)[O-])C(OCc4ccccc4)C3NS(=O)(=O)[O-])C(OCc3ccccc3)C2OS(=O)(=O)[O-])C(OCc2ccccc2)C1NS(=O)(=O)[O-].[Na+].[Na+].[Na+].[Na+].[Na+].[Na+].[Na+].[Na+].[Na+].[Na+].[Na+].[Na+].[Na+].[Na+].[Na+].[Na+] (stereo not shown) [Compound 240] | inhibit PDGF-β proliferation (starting in the micromolar range) | inhibition of control and/or VEGF-A-stimulated angiogenesis
